Data: US11299453B2 (Universität zu Köln, priority 2017, dated 2022)

Key:
Assay type in all cases: cell-based
[1] = test system: colony forming PSCs in pre-purified cardiac clusters of murine ESC line αPIG44-D3; test: Colony formation assay after treatment of pre-purified mESC cardiac clusters; conditions: 48 h
Method: (§1) Aiming at complete elimination of remaining PSCs in PSC-derived cell aggregates, murine cardiac clusters were pre-purified with 2-4 μg/ml puromycin from day 9 until day 14 of differentiation in order to prevent complete removal of PSCs and then treated with SM6 for 2 days to assess its potential for removal of contaminating PSCs in the absence of puromycin. After treatment, cardiac clusters were dissociated with 0.25% trypsin-EDTA supplemented with 50 U/ml of DNase I and the level of PSC contamination was determined using colony formation assay, flow cytometry for SSEA-1 and RT-PCR for Oct4. In colony formation assays 2×10^5 cells were plated on a 6 cm cell culture dish containing MEF and cultured in maintenance medium supplemented with 1000 U/ml of mLIF for 7-10 days. Developing PSC colonies on MEF plates were quantified and visualized with 1% crystal violet (Fluka Analytical, St. Louis, USA) diluted in methanol (Applichem).
To confirm the PSC-eliminating effect of the compound SM6, pre-purified cardiac clusters derived from transgenic murine ESC line αPIG44-D3 were also treated with SM6. The cells were differentiated in spinner flasks and incubated for 48 h with compound SM6 as described above with the exception that pre-purification was performed with 4 μg/ml of puromycin between day 9 and day 14, as schematically illustrated in FIG. 7a).

[2] = test system: pre-purified cardiac clusters of murine αPIG-AT25 iPSCs; test: Cell yield, flow cytometry and morphology of pre-purified miPSC cardiac clusters
Method: The differentiation of transgenic mPSCs was initiated in mass cultures as briefly described below. One million cells were transferred per non-adhering 10 cm dish with 14 ml differentiation medium composed of Iscove's Modified Dulbecco's Medium (IMDM) with GlutaMAX (Life Technologies) supplemented with 20% FBS, 1×NEAA and 100 μM β-ME. Embryoid bodies (EBs) from day 2 of differentiation were transferred in a 250 ml spinner flask (CELLSPIN 250, Integra Biosciences, Fernwald, Germany) with a density of 3×10^4 EBs per 200 ml of differentiation medium. On the first 2 days of differentiation medium was supplemented with 50 μg/ml L-ascorbic acid phosphate (AA, Wako pure chemicals industry, Japan) in order to promote the development of cardiac cells. For the selection of GFP-expressing CMs, 50 ml of the medium was exchanged with fresh differentiation medium and 8 μg/ml puromycin (Life Technologies) were supplemented on day 9 of differentiation. Two days later, the cardiac clusters were transferred on non-adhering 10 cm dishes with fresh differentiation medium containing 8 μg/ml puromycin. In the further course of differentiation medium was exchanged every 2-3 days. If not otherwise specified, the purification of GFP-positive CMs with puromycin was continued until day 16 of differentiation. For single cell analyses and transfer of PSC-derived CMs on cell culture plates, cardiac clusters were dissociated with 0.25% trypsin-EDTA (Life Technologies) supplemented with 50 U/ml DNase I (AppliChem, Darmstadt, Germany) for 20-30 min at 37° C. The mPSC-derived CMs were filtered through a polyamide membrane with […] pore size (Sefar, Heiden, Switzerland). Cell numbers were determined with a Neubauer hemocytometer and cells were stored on ice until further use.
as §1, with “In colony formation assays 2×10^5 cells were plated on a 6 cm cell culture dish containing MEF and cultured in maintenance medium supplemented with 1000 U/ml of mLIF for 7-10 days.” left out, “(Applichem). […]” for “(Applichem).”
Cells were measured with an Attune acoustic focusing cytometer (Life Technologies) and data was analyzed with the Attune Cytometric software v1.2.5 (Life Technologies). Marker expression was analyzed in a gated population of 10^4 viable cells. […]

[3] = test system: residual PSCs in pre-purified cardiac clusters of murine αPIG-AT25 iPSCs; test: Colony formation assay after treatment of pre-purified miPSC cardiac clusters; conditions: 48 h
Method: as §1
Murine αPIG-AT25 iPSCs were differentiated in spinner flasks and pre-purification of CMs with puromycin was initiated on day 9 for a time period of 5 days, as is schematically illustrated in FIG. 6a). Compared to the standard protocol for the selection of miPSC-CMs, the applied concentration of puromycin was reduced from 8 μg/ml to 2 μg/ml in order to preserve a small population of PSCs in the cardiac clusters which were then treated with 1 μM, 5 μM and 10 μM of compound SM6 for 48 hours.
For quantifying the residual PSCs, the cardiac cluster-derived cells were cultured on MEFs under iPSC conditions to allow PSCs to form colonies which were visualized by crystal violet staining. The pluripotency of grown colonies was confirmed by immunocytochemical stainings for Oct4, at day 7 after plating of CMs from dissociated cardiac clusters on MEF.

[4] = test system: unpurified EBs of murine iPSCs; test: Flow cytometry (cTnT) and cell yield of unpurified EBs; conditions: for cTnT+ CM population / fold increase of CM purity (cTnT+) compared to DMSO-treated control / reduction of total cell yield relative to DMSO control: day 9 to day 16: SM6 1 μM then 5 μM from day 14, puromycin 8 μg/ml
Method: Purifying the whole CM population including GFP-negative CMs in murine PSC-derived EBs was tested with SM6 as well. EBs from day 9 of differentiation were treated starting with 1 μM of SM6 for 5 days followed by treatment with 5 μM from day 14 until day 16 of differentiation. The percentage of CM population in EBs was monitored by flow cytometry and the amount of contaminating PSCs was quantified by colony formation assay as described above. Fluorescence images of PSC-derived cell aggregates were captured with a Zeiss Axiovert 200M fluorescence microscope and analyzed with Zeiss Axiovision 4.5 software.
Determination of CM purity in the cell population was performed by flow cytometric analysis. PSC-derived EBs or cardiac clusters were dissociated with 0.25% trypsin-EDTA. Dead cells were stained with LIVE/DEAD fixable dead cell stain kit (Life Technologies) prior to cell fixation using in 4% PFA for 15 min. Immunological staining of cardiac Troponin T (cTnT) was performed in order to detect the total CM population including GFP-negative CMs. […] An anti-cTnT mouse antibody (sc-20025, Santa Cruz, Dallas, USA) and the corresponding isotype control (sc-3878, Santa Cruz) were diluted 1:50 in 0.8% BSA in PBS with 1% saponin and incubated for 30 min at 4° C., respectively. After washing the cells with PBS, cells were incubated with an AF555-conjugated secondary antibody (1:100, A21422, Life Technologies) in 0.8% BSA and 1% saponin in PBS for 1 h at 4° C.
Cells were measured with an Attune acoustic focusing cytometer (Life Technologies) and data was analyzed with the Attune Cytometric software v1.2.5 (Life Technologies). Marker expression was analyzed in a gated population of 10^4 viable cells.
In order to determine whether it is possible to entirely replace puromycin pre-treatment with SM6 and thus circumvent the need for genetic manipulation of PSCs to enable CM selection, the SM6 was supplemented to the differentiation medium of miPSCs from day 9 onwards starting with a concentration of 1 μM which was increased to 5 μM from day 14 until day 16 of differentiation, as is schematically illustrated in FIG. 8a). Control cells received 0.025% DMSO or 8 μg/ml puromycin during this time period (day 9 to day 16 of differentiation).

Compound: Oc1ccccc1CN[C@@H]1CCCC[C@H]1NCc1ccccc1O [SM6, (1R,2R)-N,N′-di(2-hydroxybenzyl)-1,2-diaminocyclohexane]
- reduction of the number of ESC-derived colonies compared to DMSO control ([1]; 1 μM): 20.03±26.95%
- reduction of the number of ESC-derived colonies compared to DMSO control ([1]; 5 μM): 93.75±3.45%
- reduction of the number of ESC-derived colonies compared to DMSO control ([1]; 10 μM): 96.23±0.75%
- morphology and contractility of cardiac clusters ([2]; 1 μM, 5 μM and 10 μM, 48 hours): not compromised
- fraction of GFP−/cTnT− non-CMs ([2]; 10 μM, flow cytometry): 7%
- fraction of GFP+/cTnT+ CMs of the viable cell population ([2]; increasing concentrations of SM6, flow cytometry): up to 74%
- reduction of the number of colonies compared to DMSO-treated control ([3]; 1 μM): 71.9±21.19%
- number of colonies after plating of 2×10^5 cells ([3]; 5 μM): 2.00±2.94 colonies
- number of colonies after plating of 2×10^5 cells ([3]; 10 μM): 0.37±0.60 colonies
- fold higher yield of cTnT+ CMs compared to the treatment with puromycin ([4]; SM6 1 μM then 5 μM from day 14, p<0.01): 2.72±1.61 fold
- cTnT+ CM population [4]: 77.57±12.26%
- fold increase of CM purity (cTnT+) compared to DMSO-treated control [4]: 2.56±1.25 fold
- reduction of total cell yield relative to DMSO control [4]: 56.6±10.44%
- CM yield higher compared to the DMSO-treated control group ([4]; in three out of five experiments): 31-86%

Compound: COc1ccc(C[C@H](N)C(=O)N[C@H]2[C@@H](O)[C@H](n3cnc4c(N(C)C)ncnc43)O[C@@H]2CO)cc1 [puromycin, reference compound]
- reduction of the number of ESC-derived colonies compared to DMSO control ([1]; puromycin 8 μg/ml): 47.83±24.89%
- reduction of total cell yield compared to DMSO-treated control ([2]; puromycin 8 μg/ml): 20.55±14.43%
- number of colonies after plating of 2×10^5 cells ([3]; puromycin 8 μg/ml): 28.9±23.37 colonies
- reduction of the number of colonies compared to DMSO-treated control ([3]; puromycin 8 μg/ml): 64.87±25.55%
- cTnT+ CM population [4]: 93.26±3.05%
- fold increase of CM purity (cTnT+) compared to DMSO-treated control [4]: 3.08±1.42 fold
- reduction of total cell yield relative to DMSO control [4]: 92.17±3.53%
